In US10799507B2, “5-(7H-pyrrolo[2,3-d]pyrimidin-4-yl)-5-azaspiro[2.5]octane-8-carboxylic acid derivatives as novel JAK kinase inhibitors” (LEO Pharma A/S, priority 2017, dated 2020):

Legend:
JAK1 = JAK1 (Homo sapiens (Human), UniProt P23458); assay: JAK kinase assay (HTRF), JAK1; type: biochemical; settings: catalytic domain, ATP at Km (7 μM)
Procedure, shortened: (§1)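 Catalytic-domain human JAK1 (GST-tagged, aa 850-1154) or His-tagged JAK2, baculovirus-expressed, phosphorylated 1 µM biotinylated TK peptide at Km ATP (JAK1 7 µM, 10 mM MgCl2, 50 nM SEB; JAK2 4 µM, 5 mM MgCl2) in pH 7.0 Hepes, 20-30 min RT. EDTA stop; overnight streptavidin-XL665/cryptate HTRF read.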

JAK2 = JAK2 (Homo sapiens (Human), UniProt O60674); assay: JAK kinase assay (HTRF), JAK2; type: biochemical; settings: catalytic domain, ATP at Km (4 μM)
JAK2, sequence (O60674 849-1124): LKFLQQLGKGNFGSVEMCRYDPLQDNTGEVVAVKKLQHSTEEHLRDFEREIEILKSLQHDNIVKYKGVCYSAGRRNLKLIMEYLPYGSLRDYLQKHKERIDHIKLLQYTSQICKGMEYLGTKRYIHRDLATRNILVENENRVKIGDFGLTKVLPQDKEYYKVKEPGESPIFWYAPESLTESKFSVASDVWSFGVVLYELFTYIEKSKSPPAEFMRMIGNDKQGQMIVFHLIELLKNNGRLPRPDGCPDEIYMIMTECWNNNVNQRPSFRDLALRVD
Procedure, shortened: as §1

JAK3 = JAK3 (Homo sapiens (Human), UniProt P52333); assay: JAK kinase assay (HTRF), JAK3; type: biochemical; settings: catalytic domain, ATP at Km (2 μM)
JAK3, sequence (P52333 822-1111): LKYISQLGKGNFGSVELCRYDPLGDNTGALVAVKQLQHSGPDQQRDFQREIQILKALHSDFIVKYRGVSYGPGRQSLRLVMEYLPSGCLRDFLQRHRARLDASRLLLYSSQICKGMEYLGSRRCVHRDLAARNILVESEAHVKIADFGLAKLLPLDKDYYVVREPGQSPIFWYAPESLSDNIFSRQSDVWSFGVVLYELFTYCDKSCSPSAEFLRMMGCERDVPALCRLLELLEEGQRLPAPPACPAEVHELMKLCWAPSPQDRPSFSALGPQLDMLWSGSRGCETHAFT
Procedure, shortened: (§2)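 HTRF read-out of biotinylated TK peptide phosphorylation (1 μM) after a 20-30 min RT reaction in pH 7.0 Hepes buffer with 5 mM MgCl2 and 0.75% DMSO. JAK3 (His-tagged catalytic domain) used 2 μM ATP; TYK2 (GST-tagged, aa 871-1187) used 13 μM ATP plus 50 nM SEB, each at ATP Km.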

TYK2 = TYK2 (Homo sapiens (Human), UniProt P29597); assay: JAK kinase assay (HTRF), TYK2; type: biochemical; settings: catalytic domain, ATP at Km (13 μM)
TYK2, sequence (P29597 871-1187): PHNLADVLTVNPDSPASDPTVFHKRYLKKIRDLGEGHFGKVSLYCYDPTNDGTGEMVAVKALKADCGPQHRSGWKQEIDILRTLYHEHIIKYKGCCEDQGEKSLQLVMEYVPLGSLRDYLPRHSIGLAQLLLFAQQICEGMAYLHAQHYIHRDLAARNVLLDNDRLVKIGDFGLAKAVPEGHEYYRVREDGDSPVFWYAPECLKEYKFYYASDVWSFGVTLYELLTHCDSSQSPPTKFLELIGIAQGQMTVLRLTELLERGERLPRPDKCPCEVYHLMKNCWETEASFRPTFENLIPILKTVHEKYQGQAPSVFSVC
Procedure, shortened: as §2

[1] = in vitro metabolic stability in human liver microsomes; type: in vitro ADME; settings: human, liver microsomes, 0.5 μM compound, 0.5 mg/mL microsomes, NADPH, 40 min, 37° C.; read-out: Human liver microsome Clapp (apparent intrinsic clearance)
Procedure: To assess the in vitro metabolic stability, the compounds (0.5 μM) were incubated in duplicates with human liver microsomes (0.5 mg/mL) in phosphate buffer and NADPH, in 96-well plates for 40 min (37° C.), using a liquid handling robot (Hamilton Microlab Star). Sample aliquots were taken at 0, 5, 10, 20 and 40 min, and dispensed into cold acetonitrile, in order to stop the reactions. The plates were centrifuged for 30 minutes before the samples were analyzed using liquid chromatography coupled to a time-of-flight mass spectrometer (AB Sciex API5600). The compound depletion over time was used to estimate the elimination rate constant, from which the apparent intrinsic clearance, Clapp, was calculated and the values are listed in Table 2.

JAK1, sequence (P23458 850-1154): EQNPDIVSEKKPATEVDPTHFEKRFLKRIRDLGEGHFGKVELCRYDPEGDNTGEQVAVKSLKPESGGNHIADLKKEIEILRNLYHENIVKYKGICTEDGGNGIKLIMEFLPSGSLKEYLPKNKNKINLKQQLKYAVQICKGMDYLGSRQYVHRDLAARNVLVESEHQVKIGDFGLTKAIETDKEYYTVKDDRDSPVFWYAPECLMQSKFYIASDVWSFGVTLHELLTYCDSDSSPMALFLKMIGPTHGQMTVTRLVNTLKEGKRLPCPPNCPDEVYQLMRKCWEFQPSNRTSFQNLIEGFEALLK

Row | Compound | EC50 (JAK1) | EC50 (JAK2) | EC50 (JAK3) | EC50 (TYK2) | CLint scaled at 0.5 μM [1]
1 | O=C(NC[C@H](O)C1CCCCC1)[C@H]1CCN(c2ncnc3[nH]ccc23)CC12CC2 [Example 15, (8S)-N-[(2R)-2-cyclohexyl-2-hydroxy-ethyl]-5-(7H-pyrrolo[2,3-d]pyrimidin-4-yl)-5-azaspiro[2.5]octane-8-carboxamide] | 0.9 nM | 1.7 nM | 3.7 nM | 7.4 nM | > 200 mL/min/kg
2 | C[C@@H](NC(=O)C1CCN(c2ncnc3[nH]ccc23)CC12CC2)c1ccc(C#N)cc1 (stereo partly drawn) [Example 111, N-[(1R)-1-(4-cyanophenyl)ethyl]-5-(7H-pyrrolo[2,3-d]pyrimidin-4-yl)-5-azaspiro[2.5]octane-8-carboxamide] | 11.2 nM | 52.1 nM | 123 nM | 930 nM | 111 mL/min/kg
3 | O=C(NCC1CCCC1)C1CCN(c2ncnc3[nH]ccc23)CC12CC2 (stereo not drawn) [Example 82, N-(cyclopentylmethyl)-5-(7H-pyrrolo[2,3-d]pyrimidin-4-yl)-5-azaspiro[2.5]octane-8-carboxamide] | 6.8 nM | 11.5 nM | 38.7 nM | 400 nM | 198 mL/min/kg
4 | C[C@H](NC(=O)[C@H]1CCN(c2ncnc3[nH]ccc23)CC12CC2)c1ccc(C#N)cc1F [Example 20, (8S)-N-[(1S)-1-(4-cyano-2-fluoro-phenyl)ethyl]-5-(7H-pyrrolo[2,3-d]pyrimidin-4-yl)-5-azaspiro[2.5]octane-8-carboxamide] | 1.1 nM | 3.1 nM | 17.6 nM | 51.3 nM | 161 mL/min/kg
5 | O=C(NCC1CC(F)(F)C1)C1CCN(c2ncnc3[nH]ccc23)CC12CC2 (stereo not drawn) [Example 56, N-[(3,3-difluorocyclobutyl)methyl]-5-(7H-pyrrolo[2,3-d]pyrimidin-4-yl)-5-azaspiro[2.5]octane-8-carboxamide] | 3.9 nM | 8.3 nM | 18.1 nM | 170 nM | 63 mL/min/kg
6 | O=C(OCC1(CO)CCCC1)[C@H]1CCN(c2ncnc3[nH]ccc23)CC12CC2 [Example 159, [1-(hydroxymethyl)cyclopentyl]methyl (8S)-5-(7H-pyrrolo[2,3-d]pyrimidin-4-yl)-5-azaspiro[2.5]octane-8-carboxylate] | 0.5 nM | 1.3 nM | 3.1 nM | 5.1 nM | > 200 mL/min/kg
7 | O=C(NCC1(O)CCCC1)[C@H]1CCN(c2ncnc3[nH]ccc23)CC12CC2 [Example 49, (8S)-N-[(1-hydroxycyclopentyl)methyl]-5-(7H-pyrrolo[2,3-d]pyrimidin-4-yl)-5-azaspiro[2.5]octane-8-carboxamide] | 3.4 nM | 15.1 nM | 26.1 nM | 43.4 nM | 35 mL/min/kg
8 | O=C(NCC(O)c1ccc(F)cn1)[C@H]1CCN(c2ncnc3[nH]ccc23)CC12CC2 (stereo partly drawn) [Example 38, (8S)-N-[2-(5-fluoro-2-pyridyl)-2-hydroxy-ethyl]-5-(7H-pyrrolo[2,3-d]pyrimidin-4-yl)-5-azaspiro[2.5]octane-8-carboxamide] | 2.2 nM | 9 nM | 33.6 nM | 32.1 nM | 73 mL/min/kg
9 | N#Cc1ccc([C@H](CO)NC(=O)C2CCN(c3ncnc4[nH]ccc34)CC23CC3)cc1 (stereo partly drawn) [Example 19, N-[(1R)-1-(4-cyanophenyl)-2-hydroxy-ethyl]-5-(7H-pyrrolo[2,3-d]pyrimidin-4-yl)-5-azaspiro[2.5]octane-8-carboxamide] | 1.1 nM | 4 nM | 8.4 nM | 109 nM | 88 mL/min/kg
10 | Cc1ccc([C@H](O)CNC(=O)[C@H]2CCN(c3ncnc4[nH]ccc34)CC23CC3)cc1 [Example 64, (8S)-N-[(2S)-2-hydroxy-2-(p-tolyl)ethyl]-5-(7H-pyrrolo[2,3-d]pyrimidin-4-yl)-5-azaspiro[2.5]octane-8-carboxamide] | 4.5 nM | 6.7 nM | 28.5 nM | 90.9 nM | > 200 mL/min/kg
11 | O=C(NC[C@H](O)c1ccccc1)C1CCN(c2ncnc3[nH]ccc23)CC12CC2 (stereo partly drawn) [Example 103, N-[(2R)-2-hydroxy-2-phenyl-ethyl]-5-(7H-pyrrolo[2,3-d]pyrimidin-4-yl)-5-azaspiro[2.5]octane-8-carboxamide] | 9.9 nM | 21.4 nM | 40.6 nM | 509 nM | 128 mL/min/kg
12 | O=C(N[C@@H](CO)c1ccc(F)cc1F)[C@H]1CCN(c2ncnc3[nH]ccc23)CC12CC2 [Example 34, (8S)-N-[(1R)-1-(2,4-difluorophenyl)-2-hydroxy-ethyl]-5-(7H-pyrrolo[2,3-d]pyrimidin-4-yl)-5-azaspiro[2.5]octane-8-carboxamide] | 1.9 nM | 3.7 nM | 6.4 nM | 32.9 nM | 69 mL/min/kg
13 | N#Cc1ccc([C@H](O)CNC(=O)[C@H]2CCN(c3ncnc4[nH]ccc34)CC23CC3)cc1 [Example 8, (8S)-N-[(2S)-2-(4-cyanophenyl)-2-hydroxy-ethyl]-5-(7H-pyrrolo[2,3-d]pyrimidin-4-yl)-5-azaspiro[2.5]octane-8-carboxamide] | 0.6 nM | 2.7 nM | 4.9 nM | 17.7 nM | > 200 mL/min/kg
14 | C[C@H](NC(=O)[C@H]1CCN(c2ncnc3[nH]ccc23)CC12CC2)[C@@H](O)c1ccc(F)cn1 [Example 41, (8S)-N-[(1S,2R)-2-(5-fluoro-2-pyridyl)-2-hydroxy-1-methyl-ethyl]-5-(7H-pyrrolo[2,3-d]pyrimidin-4-yl)-5-azaspiro[2.5]octane-8-carboxamide] | 2.5 nM | 5 nM | 48.9 nM | 33.5 nM | 166 mL/min/kg
15 | N#Cc1ccc(CNC(=O)[C@H]2CCN(c3ncnc4[nH]ccc34)CC23CC3)c(F)c1 [Example 31, (8S)-N-[(4-cyano-2-fluoro-phenyl)methyl]-5-(7H-pyrrolo[2,3-d]pyrimidin-4-yl)-5-azaspiro[2.5]octane-8-carboxamide] | 1.4 nM | 6.4 nM | 15.6 nM | 63.7 nM | 166 mL/min/kg
16 | O=C(OCC1(CO)CC1)[C@H]1CCN(c2ncnc3[nH]ccc23)CC12CC2 [Example 156, [1-(hydroxymethyl)cyclopropyl]methyl (8S)-5-(7H-pyrrolo[2,3-d]pyrimidin-4-yl)-5-azaspiro[2.5]octane-8-carboxylate] | 4 nM | 5.4 nM | 20.4 nM | 30 nM | 94 mL/min/kg
17 | N#Cc1ccc([C@@H](O)CNC(=O)[C@H]2CCN(c3ncnc4[nH]ccc34)CC23CC3)cc1 [Example 29, (8S)-N-[(2R)-2-(4-cyanophenyl)-2-hydroxy-ethyl]-5-(7H-pyrrolo[2,3-d]pyrimidin-4-yl)-5-azaspiro[2.5]octane-8-carboxamide] | 1.4 nM | 2.9 nM | 6.5 nM | 40.4 nM | 115 mL/min/kg
18 | O=C(N[C@@H](CO)[C@@H](O)c1ccc(F)cn1)[C@H]1CCN(c2ncnc3[nH]ccc23)CC12CC2 [Example 105, (8S)-N-[(1S,2R)-2-(5-fluoro-2-pyridyl)-2-hydroxy-1-(hydroxymethyl)ethyl]-5-(7H-pyrrolo[2,3-d]pyrimidin-4-yl)-5-azaspiro[2.5]octane-8-carboxamide] | 10.2 nM | 11.2 nM | 56 nM | 153 nM | 15 mL/min/kg
19 | O=C(NC[C@H](O)C1CCC1)[C@H]1CCN(c2ncnc3[nH]ccc23)CC12CC2 [Example 25, (8S)-N-[(2R)-2-cyclobutyl-2-hydroxy-ethyl]-5-(7H-pyrrolo[2,3-d]pyrimidin-4-yl)-5-azaspiro[2.5]octane-8-carboxamide] | 1.3 nM | 3.4 nM | 13.6 nM | 11.1 nM | 46 mL/min/kg
20 | N#Cc1ccc(C(O)CNC(=O)C2CCN(c3ncnc4[nH]ccc34)CC23CC3)cc1 (stereo not drawn) [Example 39, N-[2-(4-cyanophenyl)-2-hydroxy-ethyl]-5-(7H-pyrrolo[2,3-d]pyrimidin-4-yl)-5-azaspiro[2.5]octane-8-carboxamide] | 2.4 nM | 4.8 nM | 11.5 nM | 75.4 nM | 186 mL/min/kg
21 | N#Cc1ccc(CNC(=O)[C@H]2CCN(c3ncnc4[nH]ccc34)CC23CC3)cc1F [Example 16, (8S)-N-[(4-cyano-3-fluoro-phenyl)methyl]-5-(7H-pyrrolo[2,3-d]pyrimidin-4-yl)-5-azaspiro[2.5]octane-8-carboxamide] | 1 nM | 3.6 nM | 7.1 nM | 44.3 nM | 180 mL/min/kg
